ChEMBL document CHEMBL2346659, “Anti-adipogenic diarylheptanoids from Alnus hirsuta f. sibirica on 3T3-L1 cells” (Bioorg Med Chem Lett, 2013)
The source made the active and inactive calls. No cut-off for these calls is given here.

What was measured:
3T3-L1 [1] = test: Inhibition of differentiation of mouse 3T3L1 cells assessed as lipid accumulation at 50 uM after 8 days by using Oil Red O staining by spectrophotometry relative to control; assay type: functional
3T3-L1 [2] = test: Inhibition of differentiation of mouse 3T3L1 cells assessed as lipid accumulation at 10 uM after 8 days by using Oil Red O staining by spectrophotometry relative to control; assay type: functional
3T3-L1 [3] = test: Inhibition of differentiation of mouse 3T3L1 cells assessed as reduction of lipid accumulation after 8 days by using Oil Red O staining by spectrophotometry relative to control; assay type: functional, cell-based
3T3-L1 [4] = test: Inhibition of differentiation of mouse 3T3L1 cells assessed as lipid accumulation at 100 uM after 8 days by using Oil Red O staining by spectrophotometry relative to control; assay type: functional
3T3-L1 [5] = test: Inhibition of differentiation of mouse 3T3L1 cells assessed as lipid accumulation at 100 uM after 8 days by using Oil Red O staining by spectrophotometry relative to control in presence of troglitazone; assay type: functional; design: scale not given: the % may be the effect or the level left
3T3-L1 [6] = test: Antiadipogenic activity in mouse 3T3L1 cells assessed as inhibition of PPAR-gamma expression at 10 to 50 uM after 8 days by Western blot analysis; assay type: functional, cell-based
3T3-L1 [7] = test: Antiadipogenic activity in mouse 3T3L1 cells assessed as inhibition of C/EBPalpha expression at 10 to 50 uM after 8 days by Western blot analysis; assay type: functional, cell-based
3T3-L1 [8] = test: Cytotoxicity against mouse 3T3L1 cells at 100 uM; assay type: cell-based; conditions: 3t3-l1, 100 µM
3T3-L1 [9] = test: Induction of differentiation of mouse 3T3L1 cells assessed as lipid accumulation at 10 uM after 8 days by using Oil Red O staining by spectrophotometry relative to control; assay type: cell-based; conditions: 3t3-l1, 192 h

Row | Activity (3T3-L1 [9]) [%] | Compound | Lipid accumulation (% of control) (3T3-L1 [1]) [%] | Lipid accumulation relative to control (3T3-L1 [2]) [%] | inhibition (3T3-L1 [3]) | Lipid accumulation (% of control) (3T3-L1 [4]) [%] | Activity (3T3-L1 [5]) [%] | inhibition (3T3-L1 [6]) | inhibition (3T3-L1 [7]) | Activity (3T3-L1 [8])
1 |  | O=C(/C=C/c1ccc(O)c(O)c1)C[C@@H](O)CCc1ccc(O)cc1 | 81.8 | 92.6 | Dose-dependent effect | 58.8 |  |  |  | 
2 |  | O=C(/C=C/CCc1ccc(O)c(O)c1)CCc1ccc(O)c(O)c1 [DEHYDROHIRSUTANONOL] | 45.7 | 86.1 | Dose-dependent effect | 38.6 |  |  |  | 
3 |  | O=C(CCc1ccc(O)cc1)C[C@H](CCc1ccc(O)cc1)O[C@@H]1OC[C@@H](O)[C@H](O)[C@H]1O | 28.9 | 81.7 | Dose-dependent effect | 14.4 | 20.8 | Active | Active | 
4 |  | OC[C@H]1O[C@@H](O[C@H](CCCCc2ccc(O)cc2)CCc2ccc(O)cc2)[C@H](O)[C@@H](O)[C@@H]1O | 103.1 | 76 |  | 98.1 |  |  |  | 
5 |  | Oc1ccc(CC[C@@H](O)C[C@H](O)CCc2ccc(O)cc2)cc1 [(+)-HANNOKINOL] | 61.2 | 90.2 |  |  |  |  |  | Toxic
6 |  | O=C(O[C@@H]1Cc2c(O)cc(O)cc2O[C@@H]1c1cc(O)c(O)c(O)c1)c1cc(O)c(O)c(O)c1 [EPIGALOCATECHIN GALLATE] | 81.9 | 94.9 |  | 54.5 |  |  |  | 
7 |  | O=C(/C=C/C=C/c1ccc(O)c(O)c1)CCc1ccc(O)c(O)c1 | 108.9 | 104.4 |  | 103 |  |  |  | 
8 |  | Oc1ccc(CCCC[C@@H](O)CCc2ccc(O)c(O)c2)cc1O | 86.4 | 84.6 |  | 90 |  |  |  | 
9 |  | O=C(CCc1ccc(O)c(O)c1)C[C@@H](O)CCc1ccc(O)c(O)c1 [HIRSUTANONOL] | 72.6 | 83.9 | Dose-dependent effect | 59.9 |  |  |  | 
10 |  | O=C(CCc1ccc(O)cc1)C[C@@H](O)CCc1ccc(O)c(O)c1 | 70.5 | 77.3 | Dose-dependent effect | 57.6 |  |  |  | 
11 | 107.1 | Cc1c(C)c2c(c(C)c1O)CCC(C)(COc1ccc(CC3SC(=O)NC3=O)cc1)O2 (stereo not drawn) [TROGLITAZONE] |  |  |  |  |  |  |  | 
12 |  | O=C(/C=C/CCc1ccc(O)c(O)c1)/C=C/c1ccc(O)c(O)c1 | 66.5 | 86.5 | Dose-dependent effect | 36.5 |  |  |  | 
